This note sets out measurements from patent US20050261290A1, “Novel compounds of proline and morpholine derivatives” (priority 2004, published 2005).

The term inhibition denotes how much of the control response was suppressed. Low readings indicate little suppression, high ones strong suppression.

The target of this assay is human 11b-hsd-1 (Homo sapiens, UniProt P28845). The experiment in a line: Inhibition constant Ki of human 11b-hsd-1 (3H-cortisone to 3H-cortisol conversion, HPLC). It counts as biochemical. The conditions noted are these: for Ki: apparent Ki, human 11b-hsd-1, read-out: Ki app; for inhibition at 0.1 µM / % inh @ 0.1 μM: compound at 0.1 μM.
Chain of human 11b-hsd-1 (P28845 whole entry): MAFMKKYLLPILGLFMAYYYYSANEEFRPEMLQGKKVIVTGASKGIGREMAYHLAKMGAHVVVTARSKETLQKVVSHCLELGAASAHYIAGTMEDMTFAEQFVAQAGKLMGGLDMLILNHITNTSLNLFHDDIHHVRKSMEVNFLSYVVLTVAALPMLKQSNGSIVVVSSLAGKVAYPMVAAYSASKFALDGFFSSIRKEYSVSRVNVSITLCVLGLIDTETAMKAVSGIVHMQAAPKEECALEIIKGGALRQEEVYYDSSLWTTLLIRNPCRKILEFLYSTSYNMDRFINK

On to `CCCN1CCCC1(C)C(=O)NC1CCCCC1` (stereo not shown) [Example 60], for which the Ki was found to be 25 nM and testing at 0.1 µM gave an inhibition of 79%.
`CN1CCC(CN2CCOC[C@@H]2C(=O)NC2C3CC4CC(C3)CC2C4)CC1` (stereo partly shown) [Example 61]: the inhibition at 0.1 µM came to 74%.
With `N#Cc1ccc(CN2CCOC[C@@H]2C(=O)NC2C3CC4CC(C3)CC2C4)cc1` (stereo partly shown) [Example 62], the Ki was found to be 1.1 nM and at 0.1 µM the inhibition was 100%.
In the same order, the values of `O=C(NC1C2CC3CC(C2)CC1C3)[C@H]1COCCN1CC1CCCC1` (stereo partly shown) [Example 63] are 1 nM and 100%.
Consider `CC(C)CN1CCOC[C@@H]1C(=O)NC1C2CC3CC(C2)CC1C3` (stereo partly shown) [Example 64], for which the Ki turned out to be 1.3 nM and the inhibition at 0.1 µM amounted to 100%.
In the same order, the values of `CCCN1CCOC[C@@H]1C(=O)NC1C2CC3CC(C2)CC1C3` (stereo partly shown) [Example 65] are 2.6 nM and 100%.
The like results for `O=C(NC1C2CC3CC(C2)CC1C3)[C@H]1COCCN1CCO` (stereo partly shown) [Example 66] were, in that order, 10 nM and 89%.
The like results for `O=C(NC1C2CC3CC(C2)CC1C3)[C@H]1COCCN1Cc1ccccn1` (stereo partly shown) [Example 67] were, in that order, 1 nM and 100%.
Regarding `O=C(NCC1(O)CCCCCC1)[C@H]1CCCN1CC1CCCC1` [Example 68], the Ki was 2 nM and the inhibition at 0.1 µM was 93.5%.
As to `CC(C)CN1CCC[C@@H]1C(=O)NCC1(O)CCCCC1` [Example 69], the Ki worked out at 7 nM and testing at 0.1 µM gave an inhibition of 100%.
On to `O=C(NC1C2CC3CC(C2)CC1C3)[C@H]1COCCN1CCN1CCCC1` (stereo partly shown) [Example 70], for which the inhibition at 0.1 µM is 74%.
The same measure, in the same setting: the value for `CC(C)N1CCC(CN2CCOC[C@@H]2C(=O)NC2C3CC4CC(C3)CC2C4)CC1` (stereo partly shown) [Example 73] was 83%; that for `CC(C)CN1CCC(CN2CCOC[C@@H]2C(=O)NC2C3CC4CC(C3)CC2C4)CC1` (stereo partly shown) [Example 74] was 90%.
Still for that read-out and setting: the result for `CCN1CCC(CN2CCOC[C@@H]2C(=O)NC2C3CC4CC(C3)CC2C4)CC1` (stereo partly shown) [Example 75] reads 91%; that for `CC(C)N1CCC(CN2C[C@H](O)C[C@@H]2C(=O)NC2C3CC4CC(C3)CC2C4)CC1` (stereo partly shown) [Example 76], 14%.
As to `CCN1CCC[C@@H]1C(=O)NC1CCCCC1` [Example 84], the inhibition at 0.1 µM turned out to be 62%.
Consider `CCCN1CCC[C@@H]1C(=O)NC1CCCCC1` [Example 85], for which the Ki turned out to be 9 nM and the inhibition at 0.1 µM came out at 94%.
The like results for `CC(C)CN1CCC[C@@H]1C(=O)NC1CCCCC1` [Example 86] were, in that order, below 1 nM and 100%.
Regarding `CC(C)(O)CN1CCC[C@@H]1C(=O)NC1CCCCC1` [Example 87, 1-(2-Hydroxy-2-methyl-propyl)-pyrrolidine-2-carboxylic acid cyclohexylamide], at 0.1 µM the inhibition was 54%.
In the case of `COC(C)(C)CN1CCC[C@@H]1C(=O)NC1CCCCC1` [Example 88, 1-(2-Methoxy-2-methyl-propyl)-pyrrolidine-2-carboxylic acid cyclohexylamide], the Ki turned out to be 7 nM and the inhibition at 0.1 µM turned out to be 94%.
`CCCN1CCC[C@@H]1C(=O)N[C@@H]1C[C@H]2CC[C@@H]1C2` [Example 89] gave an inhibition at 0.1 µM of 92%.
The same measure, in the same setting: the value for `CCCN1CCC[C@@H]1C(=O)N[C@H]1C[C@@H]2CC[C@H]1C2` [Example 90] was 100%.
On the same count and under the same terms, the result for `CCCN1CCC[C@@H]1C(=O)NC1CC2CCC1C2` (stereo partly shown) [Example 91] reads 100%.
In the case of `CCCN1CCC[C@@H]1C(=O)NC1CC2CCC1C2` (stereo partly shown) [Example 92], the “% inh @ 0.1 μM” value is recorded as 100%.
Regarding `CCCN1CCC[C@@H]1C(=O)NC1CCCCCC1` [Example 93], the Ki worked out at 2 nM and the inhibition at 0.1 µM is 100%.
Turning to `CCCN1CCC[C@@H]1C(=O)NCC1CCCC1` [Example 94], the Ki worked out at 11 nM and the inhibition at 0.1 µM came to 86%.
`CCOCCN1CCC[C@@H]1C(=O)NC1CCCCC1` [Example 95]: the Ki was determined as 39 nM and 0.1 µM produced 78% inhibition.
The like results for `CC(C)OCCN1CCC[C@@H]1C(=O)NC1CCCCC1` [Example 96] were, in that order, 39 nM and 84%.
Regarding `O=C(NC1CCCCC1)[C@H]1CCCN1CC1CCCO1` (stereo partly shown) [Example 97], the Ki amounted to 7 nM. Also, the “% inh @ 0.1 μM” value (0.1 µM) is recorded as 100%.
Take `O=C(NC1CCCCC1)[C@H]1CCCN1CC1CCCO1` (stereo partly shown) [Example 98]: where the note is “0.1 µM”, the “% inh @ 0.1 μM” value is recorded as 41%.
On to `O=C(NC1CCCCC1)[C@H]1CCCN1CC1CCOCC1` [Example 99], for which the Ki was found to be 8 nM and the inhibition at 0.1 µM was 91%.
The like results for `CCCCN1CCC[C@@H]1C(=O)NC1CCCCC1` [Example 100] were, in that order, 4 nM and 100%.
`O=C(NC1CCCCC1)[C@H]1CCCN1CC(F)(F)F` [Example 101]: the Ki is 5 nM and the inhibition at 0.1 µM was 100%.
The like results for `O=C(NC1CCCCC1)[C@H]1CCCN1CC1CC1` [Example 102] were, in that order, 7 nM and 91%.
Turning to `O=C(NC1CCCCC1)[C@H]1CCCN1C1CCC1` [Example 103], the Ki stood at 14 nM and testing at 0.1 µM gave an inhibition of 83%.
`CCCN1CCC[C@@H]1C(=O)NC1(C)CCCCC1` [Example 104]: the Ki is 6 nM and at 0.1 µM the inhibition was 100%.
The like results for `CCC(C)N1CCC[C@@H]1C(=O)NC1CCCCC1` (stereo partly shown) [Example 105] were, in that order, 15 nM and 82%.
Take `CCCN1CCC[C@@H]1C(=O)NC1CCC(C)CC1` (stereo partly shown) [Example 106]: the Ki worked out at 2 nM and 0.1 µM produced 100% inhibition.
The like results for `CN(C)CCN1CCC[C@@H]1C(=O)NC1C2CC3CC(C2)CC1C3` (stereo partly shown) [Example 107] were, in that order, 2 nM and 100%.
In the same order, the values of `CN(C)CCCN1CCC[C@@H]1C(=O)NC1C2CC3CC(C2)CC1C3` (stereo partly shown) [Example 108] are 9 nM and 100%.
`CCN(CC)CCN1CCC[C@@H]1C(=O)NC1C2CC3CC(C2)CC1C3` (stereo partly shown) [Example 109] had an inhibition at 0.1 µM of 77%.
The same measure, in the same setting: the result for `CN(CCN1CCC[C@@H]1C(=O)NC1C2CC3CC(C2)CC1C3)Cc1ccccc1` (stereo partly shown) [Example 110, 1-[2-(Benzyl-methyl-amino)ethyl]-pyrrolidine-2-carboxylic acid adamantan-2-ylamide] reads 100%; that for `CNCCN1CCC[C@@H]1C(=O)NC1C2CC3CC(C2)CC1C3` (stereo partly shown) [Example 111], 96%.
On the same count and under the same terms, the result for `CC(C)(C)OC(=O)N1CCC[C@H]1CN1CCC[C@@H]1C(=O)NC1C2CC3CC(C2)CC1C3` (stereo partly shown) [Example 112] reads 81%; that for `CC(C)(C)OC(=O)N1CCC[C@@H]1CN1CCC[C@@H]1C(=O)NC1C2CC3CC(C2)CC1C3` (stereo partly shown) [Example 113], 100%.
Still for that read-out and setting: the value for `CC(C)(C)OC(=O)N1CCC(CN2CCC[C@@H]2C(=O)NC2C3CC4CC(C3)CC2C4)C1` (stereo partly shown) [Example 114] was 100%; that for `O=C(NC1C2CC3CC(C2)CC1C3)[C@H]1CCCN1CC1CCOC1` (stereo partly shown) [Example 115] was 100%.
Compound `C[C@H](O)CN1CCC[C@@H]1C(=O)NC1C2CC3CC(C2)CC1C3` (stereo partly shown) [Example 117] gave an inhibition at 0.1 µM of 100%.
The same measure, in the same setting: the value for `C[C@@H](O)CN1CCC[C@@H]1C(=O)NC1C2CC3CC(C2)CC1C3` (stereo partly shown) [Example 118] was 100%; that for `COC(C)(C)CN1CCC[C@@H]1C(=O)NC1C2CC3CC(C2)CC1C3` (stereo partly shown) [Example 120] was 100%.
On the same count and under the same terms, the value for `O=C(NC1C2CC3CC(C2)CC1C3)[C@H]1CCCNC1` (stereo partly shown) [Example 121, Piperidine-3-carboxylic acid adamantan-2-ylamide] was 17%.
Still for that read-out and setting: the result for `CC(C)CN1CCC[C@@H]1C(=O)NC12C3C4C1C1C2C3C41C` (stereo partly shown) [Example 122] reads 100%; that for `CCCN1CCC[C@@H]1C(=O)NC12C3C4C1C1C2C3C41C` (stereo partly shown) [Example 123], 100%; that for `CCN1CCC[C@H](C(=O)NC2C3CC4CC(C3)CC2C4)C1` (stereo partly shown) [Example 124], 100%.
On to `CCCN1CCC[C@H](C(=O)NC2C3CC4CC(C3)CC2C4)C1` (stereo partly shown) [Example 125], for which the inhibition at 0.1 µM came out at 81%.
Same read-out and setting: the value for `O=C(NC1C2CC3CC(C2)CC1C3)[C@H]1CCCN1Cc1ccn[nH]1` (stereo partly shown) [Example 126] was 71%; that for `O=C(NC1CCCCC1)[C@H]1CCCN1CCC(F)(F)F` [Example 127] was 100%; that for `O=C(NC1C2CC3CC(C2)CC1C3)[C@H]1CCCN1CCN1CCOCC1` (stereo partly shown) [Example 128] was 100%.
Same read-out and setting: the value for `CC(=O)NCCN1CCC[C@@H]1C(=O)NC1C2CC3CC(C2)CC1C3` (stereo partly shown) [Example 129, 1-(2-Acetylamino-ethyl)pyrrolidine-2-carboxylic acid adamantan-2-ylamide] was 72%.
Still for that read-out and setting: the result for `CS(=O)(=O)NCCN1CCC[C@@H]1C(=O)NC1C2CC3CC(C2)CC1C3` (stereo partly shown) [Example 130, 1-(2-Methanesulfonylamino-ethyl)pyrrolidine-2-carboxylic acid adamantan-2-ylamide] reads 56%; that for `CCN1[C@@H](C(=O)NC2CCCCC2)CCC1(C)C` [Example 131], 88%.
`O=C(NC1C2CC3CC(C2)CC1C3)[C@H]1CCCN1CCN1CCCC1` (stereo partly shown) [Example 132] displayed an inhibition at 0.1 µM of 92%.
As to `CS(=O)(=O)N1CCC[C@@H]1CN1CCC[C@@H]1C(=O)NC1C2CC3CC(C2)CC1C3` (stereo partly shown) [Example 134], the inhibition at 0.1 µM stood at 96%.
Same read-out and setting: the value for `CS(=O)(=O)N1CCC[C@H]1CN1CCC[C@@H]1C(=O)NC1C2CC3CC(C2)CC1C3` (stereo partly shown) [Example 135] was 100%.
